# Tested on: MV-4-11 cells
# Assay: Gene expression microarray analysis (Affymetrix PrimeView) and GSEA
# Assay type: cell-based, human
# Parameters: RFU PODN (11730768_x_at) / Fold change /veh PODN (11730768_x_at) / RFU LINC00158 (11744669_a_at) / Fold change /veh LINC00158 (11744669_a_at) / RFU DUSP10 (11751237_a_at) / Fold change /veh DUSP10 (11751237_a_at) / RFU ID3 (11757404_x_at) / Fold change /veh ID3 (11757404_x_at) / RFU PLEKHG5 (11737974_s_at) / Fold change /veh PLEKHG5 (11737974_s_at) / RFU LRRC4B (11730491_at) / Fold change /veh LRRC4B (11730491_at) / RFU GIMAP4 (11747438_a_at) / Fold change /veh GIMAP4 (11747438_a_at) / RFU KRT8 (11758183_x_at) / Fold change /veh KRT8 (11758183_x_at) / RFU CNN1 (11734310_a_at) / Fold change /veh CNN1 (11734310_a_at) / RFU VPS37D (11726825_at) / Fold change /veh VPS37D (11726825_at) / RFU C10orf10 (11716522_x_at) / Fold change /veh C10orf10 (11716522_x_at) / RFU KIR2DL2 /// KIR2DL4 /// KIR2DL5A /// KIR2DL5B /// KIR2DS1 /// KIR2DS2 /// KIR2DS3 /// KIR2DS4 /// KIR3DL3 /// KIR3DL3 /// KIR3DS1 (11738374_at) / Fold change /veh KIR2DL2 /// KIR2DL4 /// KIR2DL5A /// KIR2DL5B /// KIR2DS1 /// KIR2DS2 /// KIR2DS3 /// KIR2DS4 /// KIR3DL3 /// KIR3DL3 /// KIR3DS1 (11738374_at) / RFU C1QL1 (11718748_at) / Fold change /veh C1QL1 (11718748_at) / RFU TMPRSS4 (11747572_a_at) / Fold change /veh TMPRSS4 (11747572_a_at) / RFU HAMP (11756126_x_at) / Fold change /veh HAMP (11756126_x_at) / RFU RNFT2 (11725882_a_at) / Fold change /veh RNFT2 (11725882_a_at) / RFU NR4A2 (11747474_a_at) / Fold change /veh NR4A2 (11747474_a_at) / RFU ABCC12 (11746883_a_at) / Fold change /veh ABCC12 (11746883_a_at) / RFU TMEM136 (11760407_x_at) / Fold change /veh TMEM136 (11760407_x_at) / RFU CLDN22 /// WWC2 (11732394_at) / Fold change /veh CLDN22 /// WWC2 (11732394_at) / RFU HLA-DPB1 (11760878_x_at) / Fold change /veh HLA-DPB1 (11760878_x_at) / RFU SPINT1 (11716480_a_at) / Fold change /veh SPINT1 (11716480_a_at) / RFU GAP43 (11754022_s_at) / Fold change /veh GAP43 (11754022_s_at) / RFU A4GNT (11735810_at) / Fold change /veh A4GNT (11735810_at) / RFU PRB3 (11715151_x_at) / Fold change /veh PRB3 (11715151_x_at) / RFU TUBB4B (11761932_at) / Fold change /veh TUBB4B (11761932_at) / RFU CAPN14 (11732068_a_at) / Fold change /veh CAPN14 (11732068_a_at) / RFU TMCC2 (11721928_a_at) / Fold change /veh TMCC2 (11721928_a_at) / RFU IRGQ (11745062_a_at) / Fold change /veh IRGQ (11745062_a_at) / RFU FAM174B (11720279_a_at) / Fold change /veh FAM174B (11720279_a_at) / RFU TMPRSS4 (11748680_a_at) / Fold change /veh TMPRSS4 (11748680_a_at) / RFU FAM212B (11763350_a_at) / Fold change /veh FAM212B (11763350_a_at) / RFU PLEKHG5 (11743358_a_at) / Fold change /veh PLEKHG5 (11743358_a_at) / RFU ZSCAN30 (11745921_a_at) / Fold change /veh ZSCAN30 (11745921_a_at) / RFU CMKLR1 (11741424_a_at) / Fold change /veh CMKLR1 (11741424_a_at) / RFU LOC101060620 /// MAPK8IP1 (11723275_at) / Fold change /veh LOC101060620 /// MAPK8IP1 (11723275_at) / RFU SPTSSB (11747773_x_at) / Fold change /veh SPTSSB (11747773_x_at) / RFU PRSS12 (11739890_at) / Fold change /veh PRSS12 (11739890_at) / RFU BIN1 (11741810_x_at) / Fold change /veh BIN1 (11741810_x_at) / RFU WNT11 (11732464_a_at) / Fold change /veh WNT11 (11732464_a_at) / RFU C10orf10 (11716521_a_at) / Fold change /veh C10orf10 (11716521_a_at) / RFU C5orf56 (11738089_at) / Fold change /veh C5orf56 (11738089_at) / RFU CYB561 (11721691_x_at) / Fold change /veh CYB561 (11721691_x_at) / RFU ANKRD19P (11752326_a_at) / Fold change /veh ANKRD19P (11752326_a_at) / RFU OR2T12 /// OR2T33 /// OR2T8 (11738714_s_at) / Fold change /veh OR2T12 /// OR2T33 /// OR2T8 (11738714_s_at) / RFU VCAN (11748164_a_at) / Fold change /veh VCAN (11748164_a_at) / RFU JSRP1 (11732532_at) / Fold change /veh JSRP1 (11732532_at) / RFU KRTAP10-11 (11738290_x_at) / Fold change /veh KRTAP10-11 (11738290_x_at) / RFU MYO3A (11730013_a_at) / Fold change /veh MYO3A (11730013_a_at) / RFU EBF3 (11725865_a_at) / Fold change /veh EBF3 (11725865_a_at) / RFU CAMK2N1 (11719241_x_at) / Fold change /veh CAMK2N1 (11719241_x_at) / RFU C5orf56 (11738088_a_at) / Fold change /veh C5orf56 (11738088_a_at) / RFU OLFML3 (11715873_a_at) / Fold change /veh OLFML3 (11715873_a_at) / RFU LOC100653217 /// NTM (11731650_a_at) / Fold change /veh LOC100653217 /// NTM (11731650_a_at) / RFU MAPK11 (11762145_a_at) / Fold change /veh MAPK11 (11762145_a_at) / RFU FIZ1 (11724087_x_at) / Fold change /veh FIZ1 (11724087_x_at) / RFU OASL (11726364_x_at) / Fold change /veh OASL (11726364_x_at) / RFU SOX15 (11748057_x_at) / Fold change /veh SOX15 (11748057_x_at) / RFU CD79A (11719716_a_at) / Fold change /veh CD79A (11719716_a_at) / RFU HIST1H1D (11736915_at) / Fold change /veh HIST1H1D (11736915_at) / RFU CASKIN2 (11723855_a_at) / Fold change /veh CASKIN2 (11723855_a_at) / RFU LOC730098 (11760151_x_at) / Fold change /veh LOC730098 (11760151_x_at) / RFU OR4N2 (11742367_at) / Fold change /veh OR4N2 (11742367_at) / RFU PRRT2 (11749266_a_at) / Fold change /veh PRRT2 (11749266_a_at) / RFU SNX32 (11753110_a_at) / Fold change /veh SNX32 (11753110_a_at) / RFU CDHR5 (11726645_a_at) / Fold change /veh CDHR5 (11726645_a_at) / RFU RCAN1 (11760418_a_at) / Fold change /veh RCAN1 (11760418_a_at) / RFU FAM167A (11723789_a_at) / Fold change /veh FAM167A (11723789_a_at) / RFU FAM26E (11764081_at) / Fold change /veh FAM26E (11764081_at) / RFU ISYNA1 (11749810_s_at) / Fold change /veh ISYNA1 (11749810_s_at) / RFU ACY1 (11761880_at) / Fold change /veh ACY1 (11761880_at) / RFU 11764098_at / Fold change /veh 11764098_at / RFU SAMD14 (11745864_x_at) / Fold change /veh SAMD14 (11745864_x_at) / RFU NPB (11741838_a_at) / Fold change /veh NPB (11741838_a_at) / RFU TMPRSS6 (11731388_a_at) / Fold change /veh TMPRSS6 (11731388_a_at) / RFU KRTAP10-2 (11738614_at) / Fold change /veh KRTAP10-2 (11738614_at) / RFU ARHGAP8 /// PRR5-ARHGAP8 (11727945_x_at) / Fold change /veh ARHGAP8 /// PRR5-ARHGAP8 (11727945_x_at) / RFU KRTAP5-7 /// NADSYN1 (11734609_at) / Fold change /veh KRTAP5-7 /// NADSYN1 (11734609_at) / RFU RASL12 (11751679_a_at) / Fold change /veh RASL12 (11751679_a_at) / RFU CDKN2B (11736163_a_at) / Fold change /veh CDKN2B (11736163_a_at) / RFU PRF1 (11729649_at) / Fold change /veh PRF1 (11729649_at) / RFU, ZNF638 /// ZNF638-IT1 / Fold change vs veh, ZNF638 /// ZNF638-IT1 / RFU, PANK3 / Fold change vs veh, PANK3 / RFU, SH3YL1 / Fold change vs veh, SH3YL1 / RFU, ZEB2 / Fold change vs veh, ZEB2 / RFU, NRIP1 / Fold change vs veh, NRIP1 / RFU, PTTG1IP / Fold change vs veh, PTTG1IP / RFU, CAPN2 / Fold change vs veh, CAPN2 / RFU, MED14 / Fold change vs veh, MED14 / RFU, SNORA58 / Fold change vs veh, SNORA58 / RFU, C1orf63 / Fold change vs veh, C1orf63 / RFU, LRRFIP1 / Fold change vs veh, LRRFIP1 / RFU, NDUFAF7 / Fold change vs veh, NDUFAF7 / RFU, SLC12A2 / Fold change vs veh, SLC12A2 / RFU, IBTK / Fold change vs veh, IBTK / RFU, ESF1 / Fold change vs veh, ESF1 / Fold change vs veh, TMEM50B / RFU, TAOK1 / Fold change vs veh, TAOK1 / RFU, ACBD3 / Fold change vs veh, ACBD3 / RFU, TMA16 / Fold change vs veh, TMA16 / RFU, RWDD3 / Fold change vs veh, RWDD3 / RFU, BCAT1 / Fold change vs veh, BCAT1 / RFU, EDEM3 / Fold change vs veh, EDEM3 / RFU, TMEM33 / Fold change vs veh, TMEM33 / RFU, WDR75 / Fold change vs veh, WDR75 / RFU, AHCTF1 / Fold change vs veh, AHCTF1 / RFU, TFRC / Fold change vs veh, TFRC / RFU, ZDHHC17 / Fold change vs veh, ZDHHC17 / RFU, NOM1 / Fold change vs veh, NOM1 / RFU, ARL8B / Fold change vs veh, ARL8B / RFU, ZBTB11 / Fold change vs veh, ZBTB11 / RFU, TAMM41 / Fold change vs veh, TAMM41 / RFU, KIAA1704 /// LOC100996395 / Fold change vs veh, KIAA1704 /// LOC100996395 / RFU, ING1 / Fold change vs veh, ING1 / RFU, TRMT61B / Fold change vs veh, TRMT61B / RFU, FUBP3 / Fold change vs veh, FUBP3 / RFU, TP53 / Fold change vs veh, TP53 / RFU, TNKS2 / Fold change vs veh, TNKS2 / RFU, ZFP14 / Fold change vs veh, ZFP14 / RFU, ACTR2 / Fold change vs veh, ACTR2 / RFU, PPP3R1 / Fold change vs veh, PPP3R1 / RFU, PIK3R1 / Fold change vs veh, PIK3R1 / RFU, HNRNPA1 / Fold change vs veh, HNRNPA1 / RFU, RNF170 / Fold change vs veh, RNF170 / RFU, ZNF28 / Fold change vs veh, ZNF28 / RFU, RNGTT / Fold change vs veh, RNGTT / RFU, OGT / Fold change vs veh, OGT / RFU, BRD1 / Fold change vs veh, BRD1 / RFU, MARS / Fold change vs veh, MARS / RFU, ZNF655 / Fold change vs veh, ZNF655 / RFU, FAHD1 / Fold change vs veh, FAHD1 / RFU, BDP1 / Fold change vs veh, BDP1 / RFU, LRRCC1 / Fold change vs veh, LRRCC1 / RFU, ARID1A / Fold change vs veh, ARID1A / RFU, ZNF146 / Fold change vs veh, ZNF146 / RFU, ZNF330 / Fold change vs veh, ZNF330 / RFU, GPN3 / Fold change vs veh, GPN3 / RFU, C9orf123 / Fold change vs veh, C9orf123 / RFU, N4BP2L2 / Fold change vs veh, N4BP2L2 / RFU, ARFIP1 / Fold change vs veh, ARFIP1 / RFU, FAM179B / Fold change vs veh, FAM179B / RFU, BCL10 / Fold change vs veh, BCL10 / RFU, UHRF1BP1L / Fold change vs veh, UHRF1BP1L / RFU, BET1 / Fold change vs veh, BET1 / RFU, CNOT2 / Fold change vs veh, CNOT2 / RFU, ZNF268 / Fold change vs veh, ZNF268 / Fold change vs veh, ZNF507 / RFU, DGCR2 / Fold change vs veh, DGCR2 / RFU, WDSUB1 / Fold change vs veh, WDSUB1 / Fold change vs veh, HSP90B1 /// MIR3652 / RFU, ADSS / Fold change vs veh, ADSS / RFU, GK / Fold change vs veh, GK / RFU, ZNF148 / Fold change vs veh, ZNF148 / RFU, TAF9 / Fold change vs veh, TAF9 / RFU, SLC1A5 / Fold change vs veh, SLC1A5 / RFU, SLMO2 / Fold change vs veh, SLMO2 / RFU, ABCC4 / Fold change vs veh, ABCC4 / RFU, LOC101060439 /// RAP1B / Fold change vs veh, LOC101060439 /// RAP1B / RFU, RFX7 / Fold change vs veh, RFX7 / RFU, GTPBP10 / Fold change vs veh, GTPBP10 / RFU, CNEP1R1 / Fold change vs veh, CNEP1R1 / RFU, BIVM-ERCC5 /// ERCC5 / Fold change vs veh, BIVM-ERCC5 /// ERCC5 / RFU, ILF3 / Fold change vs veh, ILF3 / RFU 11762660_at / Fold change /veh 11762660_at / RFU VCAN (11757783_s_at) / Fold change /veh VCAN (11757783_s_at) / RFU DDX43 (11728927_at) / Fold change /veh DDX43 (11728927_at) / RFU KRT8 (11758188_x_at) / Fold change /veh KRT8 (11758188_x_at) / RFU NKD1 (11759106_at) / Fold change /veh NKD1 (11759106_at) / RFU SRD5A1 (11742802_a_at) / Fold change /veh SRD5A1 (11742802_a_at) / RFU TPSAB1 /// TPSB2 (11721975_s_at) / Fold change /veh TPSAB1 /// TPSB2 (11721975_s_at) / RFU GSTM3 (11746129_a_at) / Fold change /veh GSTM3 (11746129_a_at) / RFU IL23R (11737362_x_at) / Fold change /veh IL23R (11737362_x_at) / RFU TMEM51 (11727254_a_at) / Fold change /veh TMEM51 (11727254_a_at) / RFU PIWIL2 (11732686_x_at) / Fold change /veh PIWIL2 (11732686_x_at) / RFU ORM1 (11744905_x_at) / Fold change /veh ORM1 (11744905_x_at) / RFU CCDC152 (11743942_at) / Fold change /veh CCDC152 (11743942_at) / RFU ECM1 (11717891_a_at) / Fold change /veh ECM1 (11717891_a_at) / RFU IL23R (11748794_a_at) / Fold change /veh IL23R (11748794_a_at) / RFU TNFAIP8L3 (11732012_x_at) / Fold change /veh TNFAIP8L3 (11732012_x_at) / RFU MBOAT4 (11741988_at) / Fold change /veh MBOAT4 (11741988_at) / RFU 11764193_at / Fold change /veh 11764193_at / RFU TMEM53 (11763286_at) / Fold change /veh TMEM53 (11763286_at) / RFU MAGEB2 (11727129_at) / Fold change /veh MAGEB2 (11727129_at) / RFU TMEM200A (11744735_a_at) / Fold change /veh TMEM200A (11744735_a_at) / RFU CCDC152 (11751479_a_at) / Fold change /veh CCDC152 (11751479_a_at) / RFU FAM211A (11726209_a_at) / Fold change /veh FAM211A (11726209_a_at) / RFU RGS16 (11746705_a_at) / Fold change /veh RGS16 (11746705_a_at) / RFU VCAN (11755009_s_at) / Fold change /veh VCAN (11755009_s_at) / RFU RHOB (11743442_s_at) / Fold change /veh RHOB (11743442_s_at) / RFU RGS16 (11720943_a_at) / Fold change /veh RGS16 (11720943_a_at) / RFU RGS16 (11720944_at) / Fold change /veh RGS16 (11720944_at) / RFU, VPS4B / Fold change vs veh, VPS4B / RFU, CREB1 / Fold change vs veh, CREB1 / RFU, DNAJC13 / Fold change vs veh, DNAJC13 / RFU, GNAQ / Fold change vs veh, GNAQ / RFU, CDK5R1 / Fold change vs veh, CDK5R1 / RFU, ZRANB3 / Fold change vs veh, ZRANB3 / RFU, CUL4A / Fold change vs veh, CUL4A / RFU, CCNY / Fold change vs veh, CCNY / RFU, UFL1 / Fold change vs veh, UFL1 / RFU, COG3 / Fold change vs veh, COG3 / RFU, DIAPH2 / Fold change vs veh, DIAPH2 / RFU, SKA2 / Fold change vs veh, SKA2 / RFU, AFF3 / Fold change vs veh, AFF3 / RFU, LMF1 / Fold change vs veh, LMF1 / RFU, IPO11 / Fold change vs veh, IPO11 / RFU, DFFB / Fold change vs veh, DFFB / RFU, FOXP1 / Fold change vs veh, FOXP1 / RFU, CARD8 / Fold change vs veh, CARD8 / RFU, STRN3 / Fold change vs veh, STRN3 / RFU, ADK / Fold change vs veh, ADK / RFU, RASSF2 / Fold change vs veh, RASSF2 / RFU, WIPF1 / Fold change vs veh, WIPF1 / RFU, LARP1B / Fold change vs veh, LARP1B / RFU, RASA1 / Fold change vs veh, RASA1 / RFU, RB1 / Fold change vs veh, RB1 / RFU, PPFIA1 / Fold change vs veh, PPFIA1 / RFU, MAT2A / Fold change vs veh, MAT2A / RFU, CCT5 / Fold change vs veh, CCT5 / RFU, WDR92 / Fold change vs veh, WDR92 / RFU, CUX1 / Fold change vs veh, CUX1 / RFU, TTC7A / Fold change vs veh, TTC7A / RFU, TMEM135 / Fold change vs veh, TMEM135 / RFU, DEPTOR / Fold change vs veh, DEPTOR / RFU, CPM / Fold change vs veh, CPM / RFU, DNAJB6 / Fold change vs veh, DNAJB6 / RFU, CACNA2D3 / Fold change vs veh, CACNA2D3 / RFU, DTX4 / Fold change vs veh, DTX4 / RFU, TFCP2 / Fold change vs veh, TFCP2 / RFU, GMCL1 /// GMCL1P1 / Fold change vs veh, GMCL1 /// GMCL1P1 / RFU, AEBP2 / Fold change vs veh, AEBP2 / RFU, SNHG1 /// SNORD22 /// SNORD25 /// SNORD26 /// SNORD27 /// SNORD28 /// SNORD29 /// SNORD31 / Fold change vs veh, SNHG1 /// SNORD22 /// SNORD25 /// SNORD26 /// SNORD27 /// SNORD28 /// SNORD29 /// SNORD31 / Fold change (Aza/veh), C12orf56 (ProbeSet 11735607_a_at) / Fold change (ACY-1035/veh), C12orf56 (ProbeSet 11735607_a_at) / Fold change (Aza/veh), FGFR1OP (ProbeSet 11751329_s_at) / Fold change (ACY-1035/veh), FGFR1OP (ProbeSet 11751329_s_at) / Fold change (Aza/veh), VPS36 (ProbeSet 11739960_a_at) / Fold change (ACY-1035/veh), VPS36 (ProbeSet 11739960_a_at) / RFU SYPL1 (11715823_x_at) / Fold change /veh SYPL1 (11715823_x_at) / RFU IGFBP7 (11715501_s_at) / Fold change /veh IGFBP7 (11715501_s_at) / RFU REEP3 (11722064_at) / Fold change /veh REEP3 (11722064_at) / RFU IGLL1 (11728026_x_at) / Fold change /veh IGLL1 (11728026_x_at): dose or concentration left out as unconfirmed
# Details: ProbeSet 11749781_s_at; LIST B
compound,measurement,value
Nc1ncn([C@@H]2O[C@H](CO)[C@@H](O)[C@H]2O)c(=O)n1 [azacitidine],"RFU, BCAT1",11.21 RFU

# — paper PMC5218480 (PLoS ONE, 2017)
